Where “and” joins values, the source holds several entries; their conditions need not be identical. Identical values can stand only once. Inconclusive results and toxic doses are left out. The calls were made as follows: active = survival T/C of 150% or more; inactive = T/C below 125% in these data. Positions of bridges follow the written chain, without caps; N, C: chain ends. Non-standard residues stand in square brackets, D forms with d. Residues, ends and D or L forms follow the SMILES beside them. Chains are numbered I, II in the order given. ξ: configuration not given here. *: point of attachment. ξF = NC(Cc1ccccc1)C(=O)O; Ac5c = NC1(C(=O)O)CCCC1; Bz = O=C(c1ccccc1)*
System: CD2F1 mice, L1210 leukemia ip, survival T/C
Experiment: NCI In Vivo Anticancer Drug Screen. Data for tumor model L1210 Leukemia (intraperitoneal) in CD2F1 (CDF1) mice
Details: higher = longer survival
How it was run: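 Transplantable tumor in mice; compound-treated vs vehicle-treated groups. Read-out = treated/control ratio of the measured endpoint.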

[1] = endpoint: mean survival time, dose: 100.0 mg/kg/injection, schedule: Q04DX003 (ip), vehicle: saline with Tween-80
[2] = endpoint: mean survival time, dose: 200.0 mg/kg/injection, schedule: Q04DX003 (ip), vehicle: saline with Tween-80
[3] = endpoint: mean survival time, dose: 400.0 mg/kg/injection, schedule: Q04DX003 (ip), vehicle: saline with Tween-80
[4] = endpoint: mean survival time, dose: 100.0 mg/kg/injection, schedule: Q01DX009 (ip), vehicle: saline with Tween-80
[5] = endpoint: mean survival time, dose: 200.0 mg/kg/injection, schedule: Q01DX009 (ip), vehicle: saline with Tween-80
[6] = endpoint: mean survival time, dose: 400.0 mg/kg/injection, schedule: Q01DX009 (ip), vehicle: saline with Tween-80
[7] = endpoint: mean survival time, dose: 100.0 mg/kg/injection, schedule: Q01DX001 (ip), vehicle: saline
[8] = endpoint: mean survival time, dose: 200.0 mg/kg/injection, schedule: Q01DX001 (ip), vehicle: saline
[9] = endpoint: mean survival time, dose: 400.0 mg/kg/injection, schedule: Q01DX001 (ip), vehicle: saline
[10] = endpoint: mean survival time, dose: 100.0 mg/kg/injection, schedule: Q04DX002 (ip), vehicle: saline with Tween-80

Measured: T/C

C=C(C)CCNc1ncnc2nc[nH]c12
inactive: [1] 97 % of control | [2] 101 % of control | [3] 95 % of control

O=C1CCC2=C(CCC3(C2)OCCO3)N1
inactive: [4] 94 % of control | endpoint: mean survival time, dose: 100.0 mg/kg/injection, schedule: Q04DX003 (ip), vehicle: saline 96 % of control | [5] 102 % of control | endpoint: mean survival time, dose: 200.0 mg/kg/injection, schedule: Q04DX003 (ip), vehicle: saline 103 % of control | [6] 90 % of control | endpoint: mean survival time, dose: 400.0 mg/kg/injection, schedule: Q04DX003 (ip), vehicle: saline 100 % of control

COC1=CC=C2[C@@H]3Cc4ccc(OC)c5c4[C@]2(CCN3CCCl)C1O5 (stereo partly specified)
inactive: endpoint: mean survival time, dose: 25.0 mg/kg/injection, schedule: Q04DX003 (ip), vehicle: DMSO 107 % of control | endpoint: mean survival time, dose: 50.0 mg/kg/injection, schedule: Q04DX003 (ip), vehicle: DMSO 104 % of control | endpoint: mean survival time, dose: 100.0 mg/kg/injection, schedule: Q04DX003 (ip), vehicle: DMSO 102 % of control

CC1=NC2(CCCCC2)C[N+]1(Cc1ccccc1)Cc1ccccc1
inactive: endpoint: mean survival time, dose: 25.0 mg/kg/injection, schedule: Q01DX009 (ip), vehicle: acetone 101 % of control | endpoint: mean survival time, dose: 50.0 mg/kg/injection, schedule: Q01DX009 (ip), vehicle: acetone 97 % of control

CCCOC(=O)C(C(=O)OCCC)(C(=O)OCCC)C(=O)OCCC
inactive: [7] 96 % of control | [8] 107 % of control | [9] 93 % of control

CC(=O)Oc1cccc(C#N)c1
inactive: [4] 100 % of control | [5] 100 % of control | [6] 96 % of control

NC(Cc1ccccc1)C(=O)NC1(C(=O)O)CCCC1 (stereo unspecified) (H-[ξF]-[Ac5c]-OH)
inactive: endpoint: mean survival time, dose: 50.0 mg/kg/injection, schedule: Q01DX009 (ip), vehicle: saline 100 % of control | endpoint: mean survival time, dose: 100.0 mg/kg/injection, schedule: Q01DX009 (ip), vehicle: saline 107 % of control | endpoint: mean survival time, dose: 200.0 mg/kg/injection, schedule: Q01DX009 (ip), vehicle: saline 107 % of control

C1CC[N-]CC1.Oc1ccccc1C=NCCN=Cc1ccccc1O.[Co]
inactive: endpoint: mean survival time, dose: 1.56 mg/kg/injection, schedule: Q04DX002 (ip), vehicle: saline with Tween-80 109 % of control | endpoint: mean survival time, dose: 3.13 mg/kg/injection, schedule: Q04DX002 (ip), vehicle: saline with Tween-80 98 % of control

OC(CCC(O)c1ccccc1)c1ccccc1 (stereo unspecified)
inactive: endpoint: mean survival time, dose: 75.0 mg/kg/injection, schedule: Q01DX001 (ip), vehicle: saline sonified 98 % of control | endpoint: mean survival time, dose: 150.0 mg/kg/injection, schedule: Q01DX001 (ip), vehicle: saline sonified 96 % of control | endpoint: mean survival time, dose: 300.0 mg/kg/injection, schedule: Q01DX001 (ip), vehicle: saline sonified 94 % of control

NNC(=O)OCc1ccccc1
inactive: [10] 100 % of control

COc1cc(N=C(N)N=C(N)N)c2ncccc2c1
inactive: endpoint: mean survival time, dose: 100.0 mg/kg/injection, schedule: Q04DX002 (ip), vehicle: saline 90 % of control | endpoint: mean survival time, dose: 200.0 mg/kg/injection, schedule: Q04DX002 (ip), vehicle: saline 90 % of control

O=C(Nc1cccc(O)c1)C(Cl)=C(Cl)Cl
inactive: endpoint: median survival time, dose: 1.12 mg/kg/injection, schedule: Q01DX005 (ip), vehicle: DMSO 100 % of control | endpoint: median survival time, dose: 1.19 mg/kg/injection, schedule: Q01DX005 (ip), vehicle: DMSO 101 % of control | endpoint: median survival time, dose: 1.87 mg/kg/injection, schedule: Q01DX005 (ip), vehicle: DMSO 100 % of control and 102 % of control | endpoint: median survival time, dose: 3.12 mg/kg/injection, schedule: Q01DX005 (ip), vehicle: DMSO 113 % of control and 98 % of control | endpoint: median survival time, dose: 5.19 mg/kg/injection, schedule: Q01DX005 (ip), vehicle: DMSO 104 % of control | endpoint: median survival time, dose: 5.2 mg/kg/injection, schedule: Q01DX005 (ip), vehicle: DMSO 108 % of control | endpoint: median survival time, dose: 6.25 mg/kg/injection, schedule: Q01DX005 (ip), vehicle: other 120 % of control | endpoint: median survival time, dose: 8.66 mg/kg/injection, schedule: Q01DX005 (ip), vehicle: DMSO 102 % of control | endpoint: median survival time, dose: 8.67 mg/kg/injection, schedule: Q01DX005 (ip), vehicle: DMSO 114 % of control | endpoint: median survival time, dose: 12.5 mg/kg/injection, schedule: Q01DX005 (ip), vehicle: other 118 % of control | endpoint: median survival time, dose: 25.0 mg/kg/injection, schedule: Q01DX005 (ip), vehicle: other 93 % of control

NCC(=O)NC(Cc1ccccc1)C(=O)O (stereo unspecified) (H-Gly-[ξF]-OH)
inactive: endpoint: mean survival time, dose: 50.0 mg/kg/injection, schedule: Q01DX009 (ip), vehicle: saline with Tween-80 102 % of control | [4] 100 % of control | [5] 100 % of control

C[C@H](CCC[C@H](C)OS(=O)(=O)c1ccccc1)OS(=O)(=O)c1ccccc1
inactive: endpoint: mean survival time, dose: 12.5 mg/kg/injection, schedule: Q01DX009 (ip), vehicle: saline with Tween-80 101 % of control and 110 % of control | [6] 114 % of control and 104 % of control

COC(=O)C(CSSCC(NC(=O)CNC(=O)c1ccccc1)C(=O)OC)NC(=O)CNC(=O)c1ccccc1 (stereo not drawn) (I: Bz-Gly-Cys-OMe / II: Bz-Gly-Cys-OMe; disulfide I:2-II:2; configuration not given here)
inactive: endpoint: mean survival time, dose: 100.0 mg/kg/injection, schedule: Q01DX001 (ip), vehicle: saline with Tween-80 108 % of control | [4] 87 % of control | endpoint: mean survival time, dose: 200.0 mg/kg/injection, schedule: Q01DX001 (ip), vehicle: saline with Tween-80 102 % of control | [5] 87 % of control | endpoint: mean survival time, dose: 400.0 mg/kg/injection, schedule: Q01DX001 (ip), vehicle: saline with Tween-80 97 % of control

O=C(O)C1C2CCC(CC2)C1C(=O)O (stereo unspecified)
inactive: [10] 93 % of control | endpoint: mean survival time, dose: 200.0 mg/kg/injection, schedule: Q04DX002 (ip), vehicle: saline with Tween-80 97 % of control | endpoint: mean survival time, dose: 400.0 mg/kg/injection, schedule: Q04DX002 (ip), vehicle: saline with Tween-80 101 % of control

CCSC/C(=N\Nc1ccc([N+](=O)[O-])cc1[N+](=O)[O-])c1ccccc1
inactive: [1] 109 % of control | [2] 109 % of control | [3] 102 % of control

[CH3][Sn]([CH3])([Cl])[S]CCN
inactive: endpoint: median survival time, dose: 3.12 mg/kg/injection, schedule: Q01DX009 (ip), vehicle: saline 107 % of control | endpoint: median survival time, dose: 6.25 mg/kg/injection, schedule: Q01DX009 (ip), vehicle: saline 101 % of control | endpoint: median survival time, dose: 12.5 mg/kg/injection, schedule: Q01DX009 (ip), vehicle: saline 109 % of control | endpoint: median survival time, dose: 25.0 mg/kg/injection, schedule: Q01DX009 (ip), vehicle: saline 111 % of control | endpoint: median survival time, dose: 50.0 mg/kg/injection, schedule: Q01DX009 (ip), vehicle: saline 114 % of control

O=c1ccn(C2OC(CO)C(O)C2O)c(/C=C(\O)c2ccccc2)n1 (stereo unspecified)
inactive: endpoint: mean survival time, dose: 12.5 mg/kg/injection, schedule: Q01DX005 (ip), vehicle: distilled water + Tween-80 105 % of control | endpoint: mean survival time, dose: 25.0 mg/kg/injection, schedule: Q01DX005 (ip), vehicle: distilled water + Tween-80 97 % of control | endpoint: mean survival time, dose: 50.0 mg/kg/injection, schedule: Q01DX005 (ip), vehicle: distilled water + Tween-80 97 % of control | endpoint: mean survival time, dose: 100.0 mg/kg/injection, schedule: Q01DX005 (ip), vehicle: distilled water + Tween-80 102 % of control | endpoint: mean survival time, dose: 200.0 mg/kg/injection, schedule: Q01DX005 (ip), vehicle: distilled water + Tween-80 102 % of control

C/C=C(\NC1CCCCC1)C(=O)c1ccccc1
inactive: endpoint: mean survival time, dose: 100.0 mg/kg/injection, schedule: Q01DX009 (ip), vehicle: Klucel (hydroxypropylcellulose) (HPC) 100 % of control | endpoint: mean survival time, dose: 100.0 mg/kg/injection, schedule: Q04DX003 (ip), vehicle: Klucel (hydroxypropylcellulose) (HPC) 101 % of control | endpoint: mean survival time, dose: 200.0 mg/kg/injection, schedule: Q01DX009 (ip), vehicle: Klucel (hydroxypropylcellulose) (HPC) 109 % of control | endpoint: mean survival time, dose: 200.0 mg/kg/injection, schedule: Q04DX003 (ip), vehicle: Klucel (hydroxypropylcellulose) (HPC) 100 % of control | endpoint: mean survival time, dose: 400.0 mg/kg/injection, schedule: Q04DX003 (ip), vehicle: Klucel (hydroxypropylcellulose) (HPC) 97 % of control

COC1OC(CCl)C(Cl)C2OS(=O)(=O)OC12 (stereo unspecified)
inactive: [7] 97 % of control | [8] 100 % of control | [9] 96 % of control
